Data set [1] concerns Spleen cells of BALB/c and CBA mice. The experiment in a line: two-way mouse mixed lymphocyte reaction (3H-thymidine incorporation). In kind it is cell-based. The conditions noted are these: single compound; 3H-thymidine incorporation after four days culture.
Experimental: After four days, ^3H-thymidine is added. Sixteen hours later, the cells are harvested and ^3H-thymidine incorporation is measured by liquid scintillation counting. Cell proliferation is assessed in the absence of compounds (100% value) or in the presence of serially diluted compounds or combinations of compounds. The maximum ^3H thymidine incorporation (100% value) is around 240×10^3 cpm, and the background ^3H-thymidine incorporation in unstimulated cells is around 5×10^3 cpm. […] These IC70 values are converted into relative units with regard to the IC70 value of the respective single drug treatment.
Another data set concerns kidney allograft. The experiment in a line: orthotopic kidney allotransplantation model (DA donor, Lewis recipient). The format is in vivo, rat. As to conditions: for Histology of rejection: kidney. From the text:
Kidney transplantation is followed by contralateral nephrectomy 7 days later: at nephrectomy, the graft is macroscopically inspected, and if rejection is macroscopically evident, the experiment is terminated. Surviving animals are monitored daily for clinical signs of renal dysfunction.
(§1) In both the kidney and heart allograft experiments, the termination point in long term survivors is 100 days. In all cases, the graft is removed at autopsy, fixed in buffered formalin, and embedded in paraffin. Four micron thick sections stained with hematoxylin and eosin are read for signs of rejection and scored as “no rejection”, or “marginal”, “slight”, “moderate”, or “severe” cellular rejection based on the extent of mononuclear cell infiltration and damage to the parenchyma (tubules in the kidney, myocytes in the heart).

In the next data set the test system is heart allograft. Description: heterotopic heart allotransplantation model (DA donor, Lewis recipient). The format is in vivo, rat.
Text: The abdomen is then palpated daily to determine if the graft is still beating; in case of cessation of heartbeat, the experiment is terminated.
as §1

For data set [2] the following is noted: rat, in vivo, iv.
Experimental: Whole blood concentrations of both compounds are determined by liquid chromatography-reversed isotope dilution (LC-RID).
The mark [3] stands for this setting: heart, 40-O-(2-hydroxyethyl)-rapamycin 5.0 mg/kg daily oral.

On to `CO[C@H]1C[C@@H]2CC[C@@H](C)[C@@](O)(O2)C(=O)C(=O)N2CCCC[C@H]2C(=O)O[C@H]([C@H](C)C[C@@H]2CC[C@@H](OCCO)[C@H](OC)C2)CC(=O)[C@H](C)/C=C(\C)[C@@H](O)[C@@H](OC)C(=O)[C@H](C)C[C@H](C)/C=C/C=C/C=C/1C` [40-O-(2-hydroxyethyl)-rapamycin], for which the “IC70 (concentration at which the maximum proliferative response is inhibited by 70%)” value in data set [1] is listed as 0.3 nM. For the same molecule, the “minimum effective dose giving long term allograft survival” value in the data set with kidney allograft (kidney allograft, single compound treatment, daily oral) is given as 5.0 mg/kg; with heart allograft (heart allograft, single compound treatment, daily oral) it was above 5.0 mg/kg. Moreover, the Histology of rejection result in the data set with kidney allograft (40-O-(2-hydroxyethyl)-rapamycin 1.0 mg/kg daily oral) was “moderate-severe”; in the data set with kidney allograft (40-O-(2-hydroxyethyl)-rapamycin 2.5 mg/kg daily oral), “slight-moderate”; with kidney allograft (40-O-(2-hydroxyethyl)-rapamycin 5.0 mg/kg daily oral), “moderate; ≧100 marginal”; in the data set on heart allograft (heart, 40-O-(2-hydroxyethyl)-rapamycin 1.0 mg/kg daily oral), “severe”; in the data set with heart allograft (heart, 40-O-(2-hydroxyethyl)-rapamycin 2.5 mg/kg daily oral), “moderate”; in the data set with heart allograft (setting [3]) it was “moderate”. The “Survival (days)” value with heart allograft (setting [3]) is on record as 22,23 days. The CL in data set [2] worked out at 3.2 ± 0.3 mL/min. The t1/2 in data set [2] is 56 ± 7 h. The same molecule gave a V in data set [2] (1 mg/kg) of 52 ± 3 L/kg.

Values taken from patent US6455518B2 (Novartis AG, priority 1996, dated 2002).
